Experimental data taken from patent publication US10280166B2, “2-(1H-indazol-3-yl)-3H-imidazo[4,5-B]pyridine and therapeutic uses thereof” (Samumed, LLC, priority 2014, dated 2019).

Key:
[1] = system: Wnt activity (SW480 colon carcinoma cells stably expressing the Sp5-Luc reporter gene); assay: Sp5-Luc reporter gene screening assay for Wnt activity in SW480 cells; type: cell-based; conditions: Homo sapiens, 42 h incubation, luminescence
Source text: The screening assay for Wnt activity is described as follows. Reporter cell lines can be generated by stably transducing cancer cell lines (e.g., colon cancer) or primary cells (e.g., IEC-6 intestinal cells) with a lentiviral construct that includes a Wnt-responsive promoter driving expression of the firefly luciferase gene.
SW480 colon carcinoma cells were transduced with a lentiviral vector expressing luciferase with a human Sp5 promoter consisting of a sequence of eight TCF/LEF binding sites. SW480 cells stably expressing the Sp5-Luc reporter gene and a hygromycin resistance gene were selected by treatment with 150 μg/ml of hygromycin for 7 days. These stably transduced SW480 cells were expanded in cell culture and used for all further screening activities. For Sp5-Luc reporter gene assays, the cells were plated at 10,000 cells/well in 96-well plates with growth medium containing 10% fetal calf serum and incubated overnight at 37° C. and 5% CO2. Each compound was dissolved in DMSO as a 10 mM stock in standard j-vials and used to prepare compound source plates in dose-response format with 3-fold serial dilutions and a 10 mM top concentration. Compound transfer from serially diluted source plates to assay plates containing the cells was accomplished using a pintool (Multimek 96, Beckman equipped with V&P Scientific FP1S50H pins) based liquid handling protocol. This protocol used a slotted pin to transfer 50 nl of compound from a source plate well to an assay plate well containing 50 μl of cells in growth medium. […] Control wells received 50 nl of DMSO treatment for normalization and calculating IC50 values. The treated cells were incubated at 37° C. and 5% CO2 for an additional forty-two hours. Following incubation, the growth medium was removed and 50 μl of BrightGlo luminescence reagent (Promega) was added to each well of the 96-well assay plates. The plates were placed on an orbital shaker for 5 min and then luminescence was quantified on the Victor3 (Perkin Elmer) plate reader. Readings were normalized to DMSO only treated cells, and normalized activities were utilized for IC50 calculations using the dose-response log (inhibitor) vs. response—variable slope (four parameters) nonlinear regression feature available in GraphPad Prism 5.0 or 6.0.

[2] = system: primary human fibroblasts derived from IPF patients (LL29 cells); assay: Inhibition of fibrosis (αSMA) in TGF-β1 treated primary human fibroblasts from IPF patients; type: cell-based; conditions: Fibroblast, 96 h, TGF-β1 20 ng/mL, 4 days, % αSMA positive cells
Source text: The above synthesized compounds were screened using primary human fibroblasts (derived from IPF patients) treated with TGF-β1 to determine their ability to inhibit the fibrotic process.
Primary human fibroblasts derived from IPF patients (LL29 cells) [^1Xiaoqiu Liu, et.al., “Fibrotic Lung Fibroblasts Show Blunted Inhibition by cAMP Due to Deficient cAMP Response Element-Binding Protein Phosphorylation”, Journal of Pharmacology and Experimental Therapeutics (2005), 315(2), 678-687; ^2Watts, K. L., et.al., “RhoA signaling modulates cyclin D1 expression in human lung fibroblasts; implications for idiopathic pulmonary fibrosis”, Respiratory Research (2006), 7(1), 88] were obtained from American Type Culture Collection (ATCC) and expanded in F12 medium supplemented with 15% Fetal Bovine Serum and Penicillin/Streptomycin.
Each compound was dissolved in DMSO as a 10 mM stock and used to prepare compound source plates. Serial dilution (1:2, 11-point dose-response curves from 10 μM to 1.87 nM) and compound transfer was performed using the ECHO 550 (Labcyte, Sunnyvale, Calif.) into 384-well clear bottom assay plates (Greiner Bio-One) with appropriate DMSO backfill for a final DMSO concentration of 0.1%. LL29 cells were plated at 1,500 cells/well in 80 μl/well F12 medium supplemented with 1% Fetal Bovine Serum. One hour after addition of the cells, TGF-β1 (Peprotech; 20 ng/mL) was added to the plates to induce fibrosis (ref. 1 and 2 above). Wells treated with TGF-β1 and containing DMSO were used as controls. Cells were incubated at 37° C. and 5% CO2 for 4 days. Following incubation for 4 days, SYTOX green nucleic acid stain (Life Technologies [Thermo Fisher Scientific]) was added to the wells at a final concentration of 1 uM and incubated at room temperature for 30 min. Cells were then fixed using 4% formaldehyde (Electron Microscopy Sciences), washed 3 times with PBS followed by blocking and permeabilization using 3% Bovine Serum Albumin (BSA; Sigma) and 0.3% Triton X-100 (Sigma) in PBS. Cells were then stained with antibody specific to α-smooth muscle actin (αSMA; Abcam) (ref. 1 and 2 above) in 3% Bovine Serum Albumin (BSA; Sigma) and 0.3% Triton X-100 (Sigma) in PBS, and incubated overnight at 4° C. Cells were then washed 3 times with PBS, followed by incubation with Alexa Flor-647 conjugated secondary antibody (Life Technologies [Thermo Fisher Scientific]) and DAPI at room temperature for 1 hour. Cells were then washed 3 times with PBS and plates were sealed for imaging. αSMA staining was imaged by excitation at 630 nm and emission at 665 nm and quantified using the Compartmental Analysis program on the CellInsight CX5 (Thermo Scientific). Dead or apoptotic cells were excluded from analysis based on positive SYTOX green staining. % of total cells positive for αSMA were counted in each well and normalized to the average of 11 wells treated with TGF-β1 on the same plate using Dotmatics' Studies Software. The normalized averages (fold change over untreated) of 3 replicate wells for each compound concentration were used to create dose-responses curves and EC50 values were calculated using non-linear regression curve fit in the Dotmatics' Studies Software. The EC50 values are reported.

Cc1ccncc1-c1ccc2[nH]nc(-c3nc4c(-c5ccsc5)ccnc4[nH]3)c2c1 [Compound 265, 2-(5-(4-Methylpyridin-3-yl)-1H-indazol-3-yl)-7-(thiophen-3-yl)-3H-imidazo[4,5-b]pyridine]
IC50 [1]: 9.4 nM
EC50 [2]: 0.131 nM

CCNCc1cncc(-c2ccc3[nH]nc(-c4nc5c(-c6ccoc6)ccnc5[nH]4)c3c2)c1 [Compound 292, N-((5-(3-(7-(Furan-3-yl)-3H-imidazo[4,5-b]pyridin-2-yl)-1H-indazol-5-yl)pyridin-3-yl)methyl)ethanamine]
IC50 [1]: 47.7 nM
EC50 [2]: 0.009 nM

CN(C)c1cncc(-c2ccc3[nH]nc(-c4nc5c(N6CCCCC6)ccnc5[nH]4)c3c2)c1 [Compound 163, N,N-Dimethyl-5-(3-(7-(piperidin-1-yl)-3H-imidazo[4,5-b]pyridin-2-yl)-1H-indazol-5-yl)pyridin-3-amine]
IC50 [1]: 122 nM
EC50 [2]: 0.009 nM

CCC(=O)Nc1cncc(-c2ccc3[nH]nc(-c4nc5c(N6CCCCC6)ccnc5[nH]4)c3c2)c1 [Compound 157, N-(5-(3-(7-(Piperidin-1-yl)-3H-imidazo[4,5-b]pyridin-2-yl)-1H-indazol-5-yl)pyridin-3-yl)propionamide]
IC50 [1]: 15 nM
EC50 [2]: 0.605 nM

O=C(Nc1cncc(-c2ccc3[nH]nc(-c4nc5c(-c6ccsc6)ccnc5[nH]4)c3c2)c1)C1CCCC1 [Compound 281, N-(5-(3-(7-(Thiophen-3-yl)-3H-imidazo[4,5-b]pyridin-2-yl)-1H-indazol-5-yl)pyridin-3-yl)cyclopentanecarboxamide]
IC50 [1]: 9.8 nM
EC50 [2]: 0.359 nM

CCC(=O)Nc1cncc(-c2ccc3[nH]nc(-c4nc5c(-c6cccc(F)c6)ccnc5[nH]4)c3c2)c1 [Compound 1, N-(5-(3-(7-(3-Fluorophenyl)-3H-imidazo[4,5-b]pyridin-2-yl)-1H-indazol-5-yl)pyridin-3-yl)propionamide]
IC50 [1]: < 1 nM
EC50 [2]: 0.015 nM

Nc1cncc(-c2ccc3[nH]nc(-c4nc5c(-c6cccnc6)ccnc5[nH]4)c3c2)c1 [Compound 81, 5-(3-(7-(Pyridin-3-yl)-3H-imidazo[4,5-b]pyridin-2-yl)-1H-indazol-5-yl)pyridin-3-amine]
IC50 [1]: 5.8 nM
EC50 [2]: 0.009 nM

O=C(Nc1cncc(-c2ccc3[nH]nc(-c4nc5c(-c6ccoc6)ccnc5[nH]4)c3c2)c1)C1CCC1 [Compound 306, N-(5-(3-(7-(Furan-3-yl)-3H-imidazo[4,5-b]pyridin-2-yl)-1H-indazol-5-yl)pyridin-3-yl)cyclobutanecarboxamide]
IC50 [1]: 6.7 nM
EC50 [2]: 0.527 nM

Cc1ncc(-c2ccc3[nH]nc(-c4nc5c(-c6cccc(F)c6)ccnc5[nH]4)c3c2)n1C [Compound 1877, 2-(5-(1,2-Dimethyl-1H-imidazol-5-yl)-1H-indazol-3-yl)-7-(3-fluorophenyl)-3H-imidazo[4,5-b]pyridine]
IC50 [1]: > 10000 nM
EC50 [2]: 9.99 nM

Cn1cc(-c2ccc3[nH]nc(-c4nc5c(-c6cccc(F)c6)ccnc5[nH]4)c3c2)cn1 [Compound 1876, 7-(3-Fluorophenyl)-2-(5-(1-methyl-1H-pyrazol-4-yl)-1H-indazol-3-yl)-3H-imidazo[4,5-b]pyridine]
IC50 [1]: 61 nM
EC50 [2]: 9.99 nM

CC(C)(C)C(=O)Nc1cncc(-c2ccc3[nH]nc(-c4nc5c(-c6ccc(F)cc6)ccnc5[nH]4)c3c2)c1 [Compound 34, N-(5-(3-(7-(4-Fluorophenyl)-3H-imidazo[4,5-b]pyridin-2-yl)-1H-indazol-5-yl)pyridin-3-yl)pivalamide]
IC50 [1]: 19 nM
EC50 [2]: 0.334 nM

CC(C)C(=O)Nc1cncc(-c2ccc3[nH]nc(-c4nc5c(-c6ccccc6F)ccnc5[nH]4)c3c2)c1 [Compound 61, N-(5-(3-(7-(2-Fluorophenyl)-3H-imidazo[4,5-b]pyridin-2-yl)-1H-indazol-5-yl)pyridin-3-yl)isobutyramide]
IC50 [1]: 6 nM
EC50 [2]: 0.009 nM

O=C(CC1CCCCC1)Nc1cncc(-c2ccc3[nH]nc(-c4nc5c(-c6cccc(F)c6)ccnc5[nH]4)c3c2)c1 [Compound 1887, 2-Cyclohexyl-N-(5-(3-(7-(3-fluorophenyl)-3H-imidazo[4,5-b]pyridin-2-yl)-1H-indazol-5-yl)pyridin-3-yl)acetamide]
IC50 [1]: > 10000 nM
EC50 [2]: 9.99 nM

CC(C)Nc1cncc(-c2ccc3[nH]nc(-c4nc5c(-c6cc(F)cc(NCCN(C)C)c6)ccnc5[nH]4)c3c2)c1 [Compound 454, N^1-(3-Fluoro-5-(2-(5-(5-(isopropylamino)pyridin-3-yl)-1H-indazol-3-yl)-3H-imidazo[4,5-b]pyridin-7-yl)phenyl)-N^2,N^2-dimethylethane-1,2-diamine]
IC50 [1]: 51.7 nM
EC50 [2]: 0.019 nM

Cc1ccc(-c2ccnc3[nH]c(-c4n[nH]c5ccc(-c6cncc(NC(=O)C(C)(C)C)c6)cc45)nc23)s1 [Compound 372, N-(5-(3-(7-(5-Methylthiophen-2-yl)-3H-imidazo[4,5-b]pyridin-2-yl)-1H-indazol-5-yl)pyridin-3-yl)pivalamide]
IC50 [1]: 0.6 nM
EC50 [2]: 0.009 nM

Cc1ccc(-c2ccnc3[nH]c(-c4n[nH]c5ccc(-c6cncc(CN7CCCCC7)c6)cc45)nc23)s1 [Compound 379, 7-(5-Methylthiophen-2-yl)-2-(5-(5-(piperidin-1-ylmethyl)pyridin-3-yl)-1H-indazol-3-yl)-3H-imidazo[4,5-b]pyridine]
IC50 [1]: 76 nM
EC50 [2]: 0.405 nM

O=C(Nc1cncc(-c2ccc3[nH]nc(-c4nc5c(-c6ccc(F)cc6)ccnc5[nH]4)c3c2)c1)C1CCC1 [Compound 46, N-(5-(3-(7-(4-Fluorophenyl)-3H-imidazo[4,5-b]pyridin-2-yl)-1H-indazol-5-yl)pyridin-3-yl)cyclobutanecarboxamide]
IC50 [1]: 2 nM
EC50 [2]: 0.08 nM

c1ccc(-c2ccnc3[nH]c(-c4n[nH]c5ccc(-c6cncc(CNCC7CCCC7)c6)cc45)nc23)nc1 [Compound 154, 1-Cyclopentyl-N-((5-(3-(7-(pyridin-2-yl)-3H-imidazo[4,5-b]pyridin-2-yl)-1H-indazol-5-yl)pyridin-3-yl)methyl)methanamine]
IC50 [1]: 1460 nM
EC50 [2]: 9.99 nM

COc1cncc(-c2ccc3[nH]nc(-c4nc5c(-c6cccc(F)c6)ccnc5[nH]4)c3c2)c1 [Compound 1884, 7-(3-Fluorophenyl)-2-(5-(5-methoxypyridin-3-yl)-1H-indazol-3-yl)-3H-imidazo[4,5-b]pyridine]
IC50 [1]: > 10000 nM
EC50 [2]: 9.99 nM
